Results published in US20230117470A1, “SUBSTITUTED PYRAZOLE COMPOUNDS AS TOLL RECEPTOR INHIBITORS” (BRISTOL-MYERS SQUIBB COMPANY, priority 2019, published 2023).

How the values were obtained:
Type in all cases: cell-based
human TLR8 = target: T1, human TLR8 (Homo sapiens, UniProt Q9NR97); assay: TLR8 inhibition reporter assay (HEK-Blue cells, SEAP reporter, R848 stimulation); settings: HEK-Blue cells overexpressing human TLR8, SEAP reporter, R848 15.9 μM
T1 construct: host or cells: HEK-Blue cells
T1 sequence (Q9NR97 27-1041): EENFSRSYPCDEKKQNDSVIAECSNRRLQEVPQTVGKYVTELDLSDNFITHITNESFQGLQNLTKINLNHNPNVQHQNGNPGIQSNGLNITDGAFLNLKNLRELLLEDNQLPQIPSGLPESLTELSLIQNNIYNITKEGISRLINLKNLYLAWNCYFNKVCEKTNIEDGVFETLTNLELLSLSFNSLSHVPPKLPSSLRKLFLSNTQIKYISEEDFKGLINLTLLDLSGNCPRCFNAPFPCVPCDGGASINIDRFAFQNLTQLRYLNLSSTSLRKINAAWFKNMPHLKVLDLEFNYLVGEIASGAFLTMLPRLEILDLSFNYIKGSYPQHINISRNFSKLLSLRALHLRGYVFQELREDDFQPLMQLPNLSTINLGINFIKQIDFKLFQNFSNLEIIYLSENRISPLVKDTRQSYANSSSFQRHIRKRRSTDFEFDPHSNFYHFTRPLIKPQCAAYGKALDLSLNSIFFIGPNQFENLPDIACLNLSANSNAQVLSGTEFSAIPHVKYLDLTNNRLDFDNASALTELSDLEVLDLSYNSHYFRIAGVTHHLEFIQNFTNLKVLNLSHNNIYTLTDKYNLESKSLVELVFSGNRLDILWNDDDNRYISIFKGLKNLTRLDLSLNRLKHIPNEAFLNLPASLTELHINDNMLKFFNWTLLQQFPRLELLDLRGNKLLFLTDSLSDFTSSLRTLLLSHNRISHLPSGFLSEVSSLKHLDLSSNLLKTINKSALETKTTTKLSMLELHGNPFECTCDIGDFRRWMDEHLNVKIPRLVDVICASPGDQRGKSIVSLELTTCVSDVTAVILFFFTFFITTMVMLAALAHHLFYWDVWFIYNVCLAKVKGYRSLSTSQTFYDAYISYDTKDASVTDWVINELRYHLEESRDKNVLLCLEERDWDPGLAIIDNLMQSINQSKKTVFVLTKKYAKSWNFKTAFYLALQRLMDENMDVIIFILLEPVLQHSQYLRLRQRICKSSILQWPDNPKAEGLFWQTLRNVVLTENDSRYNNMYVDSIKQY
Method in brief: (§1)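 Cells were pre-treated 30 min at room temperature with compound (final 0.05 nM–50 μM), then stimulated with gardiquimod 7.5 μM (TLR7), R848 15.9 μM (TLR8) or ODN2006 5 nM (TLR9). SEAP was read after 22 h at 37° C; percent inhibition scaled between agonist+DMSO and known-inhibitor wells.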

human TLR7 = target: T2, human TLR7 (Homo sapiens, UniProt Q9NYK1); assay: TLR7 inhibition reporter assay (HEK-Blue cells, SEAP reporter, gardiquimod stimulation); settings: HEK-Blue cells overexpressing human TLR7, SEAP reporter, gardiquimod 7.5 μM
T2 construct: host or cells: HEK-Blue cells
T2 sequence (Q9NYK1 27-1049): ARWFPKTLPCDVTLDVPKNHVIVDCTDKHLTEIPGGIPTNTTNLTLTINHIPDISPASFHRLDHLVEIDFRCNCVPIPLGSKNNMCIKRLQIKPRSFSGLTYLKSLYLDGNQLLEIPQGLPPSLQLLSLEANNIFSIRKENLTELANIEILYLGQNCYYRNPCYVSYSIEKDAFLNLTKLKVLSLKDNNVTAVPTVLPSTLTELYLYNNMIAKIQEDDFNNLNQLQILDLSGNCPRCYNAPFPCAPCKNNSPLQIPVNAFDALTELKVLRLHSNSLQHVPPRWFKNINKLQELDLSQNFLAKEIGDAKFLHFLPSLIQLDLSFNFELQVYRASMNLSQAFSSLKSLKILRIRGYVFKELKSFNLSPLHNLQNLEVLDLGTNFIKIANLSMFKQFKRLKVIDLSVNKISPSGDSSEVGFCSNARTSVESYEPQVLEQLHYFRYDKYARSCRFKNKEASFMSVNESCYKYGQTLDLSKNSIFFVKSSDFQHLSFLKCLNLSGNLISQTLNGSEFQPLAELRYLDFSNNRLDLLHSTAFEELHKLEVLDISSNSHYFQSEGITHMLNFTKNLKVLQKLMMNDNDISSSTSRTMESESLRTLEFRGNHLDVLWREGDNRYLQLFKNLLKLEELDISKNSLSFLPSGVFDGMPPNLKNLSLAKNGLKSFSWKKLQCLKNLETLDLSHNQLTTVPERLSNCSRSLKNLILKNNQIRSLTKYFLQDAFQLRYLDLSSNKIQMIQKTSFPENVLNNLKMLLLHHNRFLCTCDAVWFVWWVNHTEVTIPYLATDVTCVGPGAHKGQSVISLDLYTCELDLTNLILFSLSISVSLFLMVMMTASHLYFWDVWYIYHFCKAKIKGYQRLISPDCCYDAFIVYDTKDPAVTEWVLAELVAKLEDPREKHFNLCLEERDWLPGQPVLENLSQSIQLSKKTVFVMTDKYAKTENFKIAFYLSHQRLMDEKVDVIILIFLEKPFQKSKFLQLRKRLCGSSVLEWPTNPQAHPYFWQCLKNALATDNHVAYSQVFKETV
Method in brief: as §1

human TLR9 = target: T3, human TLR9 (Homo sapiens, UniProt Q9NR96); assay: TLR9 inhibition reporter assay (HEK-Blue cells, SEAP reporter, ODN2006 stimulation); settings: HEK-Blue cells overexpressing human TLR9, SEAP reporter, ODN2006 5 nM
T3 construct: host or cells: HEK-Blue cells
T3 sequence (Q9NR96 26-1032): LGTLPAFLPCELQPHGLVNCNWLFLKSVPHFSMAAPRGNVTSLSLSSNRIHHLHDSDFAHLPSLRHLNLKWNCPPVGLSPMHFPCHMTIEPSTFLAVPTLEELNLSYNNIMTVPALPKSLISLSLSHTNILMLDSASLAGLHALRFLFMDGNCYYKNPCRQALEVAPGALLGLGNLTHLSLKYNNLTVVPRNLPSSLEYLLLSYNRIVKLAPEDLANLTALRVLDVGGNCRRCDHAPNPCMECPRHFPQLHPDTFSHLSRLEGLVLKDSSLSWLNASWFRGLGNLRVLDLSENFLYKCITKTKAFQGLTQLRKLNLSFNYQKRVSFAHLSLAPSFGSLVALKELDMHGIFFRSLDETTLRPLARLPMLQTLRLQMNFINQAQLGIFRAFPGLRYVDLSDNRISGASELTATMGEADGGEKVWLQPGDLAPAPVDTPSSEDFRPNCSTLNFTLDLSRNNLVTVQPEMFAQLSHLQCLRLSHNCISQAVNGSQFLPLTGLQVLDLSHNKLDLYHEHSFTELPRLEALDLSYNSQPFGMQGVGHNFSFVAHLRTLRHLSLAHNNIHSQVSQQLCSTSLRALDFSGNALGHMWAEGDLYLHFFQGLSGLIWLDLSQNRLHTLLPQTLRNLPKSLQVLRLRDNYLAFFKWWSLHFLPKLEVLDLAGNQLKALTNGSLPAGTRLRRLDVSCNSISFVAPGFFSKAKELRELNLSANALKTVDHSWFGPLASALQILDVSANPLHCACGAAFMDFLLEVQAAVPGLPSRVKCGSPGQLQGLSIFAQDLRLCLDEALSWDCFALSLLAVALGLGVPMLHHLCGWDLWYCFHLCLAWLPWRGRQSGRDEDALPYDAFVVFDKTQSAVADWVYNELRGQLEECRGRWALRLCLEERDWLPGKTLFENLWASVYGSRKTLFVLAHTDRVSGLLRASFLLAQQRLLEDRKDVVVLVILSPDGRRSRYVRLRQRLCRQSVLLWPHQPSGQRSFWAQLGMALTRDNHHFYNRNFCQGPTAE
Method in brief: as §1

SMILES	IC50 (human TLR8)	IC50 (human TLR7)	IC50 (human TLR9)
Cc1cc(-c2[nH]nc(-c3ccc(N4CCN(CC(C)(C)C)CC4)cc3)c2C(C)C)cn2ncnc12 [Example 408]	0.168 µM	0.0474 µM	> 50 µM
Cc1cc(-c2[nH]nc(C(=O)NCC3CNC3)c2C(C)C)cn2ncnc12 [Example 49]	0.00048 µM	0.00097 µM	9.22 µM
Cc1cc(-c2[nH]nc(C(=O)N[C@H]3CC[C@H](NC(C)C(C)C)CC3)c2C(C)C)cn2ncnc12 (stereo partly drawn) [Example 118]	0.00126 µM	0.002 µM	3.3 µM
COc1cc(-c2[nH]nc(-c3cnc(C4CCN(C5CCOCC5)CC4)cn3)c2C(C)C)cn2ncnc12 [Example 380]	0.00507 µM	0.0115 µM	6.52 µM
Cc1cc(-c2[nH]nc(-c3ccc(C4CCN(C)CC4)nn3)c2C(C)C)cn2ncnc12 [Example 357]	> 3.13 µM	1.28 µM	38.1 µM
Cc1cc(-c2[nH]nc(C3CCC(NCC4(C)COC4)CC3)c2C(C)C)cn2ncnc12 (single isomer, unassigned) [Example 280]	0.00073 µM	0.00126 µM	4.96 µM
Cc1cc(-c2[nH]nc(C(=O)NCC3CN(CC(C)(C)C)CCO3)c2C(C)C)cn2ncnc12 (stereo not drawn) [Example 144]	0.00356 µM	0.00726 µM	15.2 µM
Cc1cc(-c2[nH]nc(-c3ccc(C4CCN(C(=O)CN(C)C)CC4)cc3)c2C(C)C)cn2ncnc12 [Example 323, 2-(dimethylamino)-1-(4-(4-(4-isopropyl-5-(8-methyl-[1,2,4]triazolo[1,5-a]pyridin-6-yl)-1H-pyrazol-3-yl)phenyl)piperidin-1-yl)ethan-1-one]	0.00386 µM	0.0224 µM	> 50 µM
CCc1c(C(=O)NC2CCN(C)CC2)n[nH]c1-c1cc(C)c2ncnn2c1 [Example 181, 4-ethyl-5-(8-methyl-[1,2,4]triazolo[1,5-a]pyridin-6-yl)-N-(1-methylpiperidin-4-yl)-1H-pyrazole-3-carboxamide]	0.036 µM	0.00992 µM	5.66 µM
CCN1CCc2nc(-c3n[nH]c(-c4cc(OC)c5ncnn5c4)c3C(C)C)sc2C1 [Example 261]	0.00226 µM	0.00843 µM	17.1 µM
COc1cc(-c2[nH]nc(-c3ccc(C4CCN(CCS(C)(=O)=O)CC4)cn3)c2C(C)C)cn2ncnc12 [Example 392]	0.404 µM	0.241 µM	> 50 µM
Cc1cc(-c2[nH]nc(C(=O)NC3CCN(C(C)C)CC3)c2CC(F)(F)F)cn2ncnc12 [Example 193]	0.00445 µM	0.00197 µM	7.63 µM
Cc1cc(-c2[nH]nc(C(=O)N3CCC(CN)CC3)c2C(C)C)cn2ncnc12 [Example 61]	0.00533 µM	0.0227 µM	> 50 µM
Cc1cc(-c2[nH]nc(-c3ccc4c(c3)CCN(C(=O)CN(C)C)C4)c2C(C)C)cn2ncnc12 [Example 268, 2-(dimethylamino)-1-(6-(4-isopropyl-5-(8-methyl-[1,2,4]triazolo[1,5-a]pyridin-6-yl)-1H-pyrazol-3-yl)-3,4-dihydroisoquinolin-2(1H)-yl)ethan-1-one]	0.0651 µM	0.0411 µM	> 50 µM
Cc1cc(-c2[nH]nc(C(=O)N[C@H]3CC[C@@H](N(CCC(C)C)CCC(C)C)CC3)c2C(C)C)cn2ncnc12 [Example 91]	0.00812 µM	0.00401 µM	6.72 µM
Cc1cc(-c2[nH]nc(C3CCN(CC(=O)N(C)C)CC3)c2C(C)C)cn2ncnc12 [compound 212]	0.00063 µM	0.00062 µM	7.39 µM
Cc1cc(-c2[nH]nc(C(=O)NC3CCCNC3)c2C(C)C)cn2ncnc12 (stereo not drawn) [Example 67]	0.0129 µM	0.0126 µM	2.25 µM
COc1cc(-c2[nH]nc(C(=O)NC3CCNCC3)c2CC(F)(F)F)cn2ncnc12 [Example 190, 5-(8-methoxy-[1,2,4]triazolo[1,5-a]pyridin-6-yl)-N-(piperidin-4-yl)-4-(2,2,2-trifluoroethyl)-1H-pyrazole-3-carboxamide]	0.00058 µM	0.0008 µM	8.35 µM
